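Growth conditions: 96-well plates. Treatment: test compound, 48 hours, 5 concentrations. Analysis: linear interpolation between bracketing concentrations; unreached endpoints set to highest concentration. GI50 marks 50% less growth.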 Calls of active or inactive are those of the source. No stated cut-off is given here; in the data, active = GI50 up to about 1.1 µM and inactive = higher.
Tests used:
Experiment in all cases: NCI anticancer screen, dose series, 48 h
IGROV-1 = tested on: IGROV-1
HT-29 = tested on: HT-29
Malme-3M = tested on: Malme-3M
SK-MEL-5 = tested on: SK-MEL-5
NCI/ADR-RES = tested on: NCI/ADR-RES
OVCAR-8 = tested on: OVCAR-8
DU-145 = tested on: DU-145
MDA-MB-435 = tested on: MDA-MB-435
SF-295 = tested on: SF-295
UACC-257 = tested on: UACC-257
T47D = tested on: T47D
ACHN = tested on: ACHN
SNB-75 = tested on: SNB-75
HCT-116 = tested on: HCT-116
BT-549 = tested on: BT-549
LOX IMVI = tested on: LOX IMVI
SN12C = tested on: SN12C
RPMI-8226 = tested on: RPMI-8226
NCI-H460 = tested on: NCI-H460
A498 = tested on: A498

For `CCOC(=O)C(NCc1cccc(C(F)(F)F)c1)(NC(=O)c1ccccc1)C(F)(F)F` (centres undefined), the GI50 (IGROV-1) was 23.7 µM (inactive), the GI50 (HT-29) was 19.6 µM (inactive) and the GI50 (Malme-3M) was 21.7 µM (inactive). The GI50 (SK-MEL-5) was 30.5 µM (inactive), the GI50 (NCI/ADR-RES) was 18.8 µM (inactive) and the GI50 (OVCAR-8) was 32.4 µM (inactive). The GI50 (DU-145) was 46.5 µM (inactive), the GI50 (MDA-MB-435) was 24.3 µM (inactive) and the GI50 (SF-295) was 44.1 µM (inactive). The GI50 (UACC-257) was 18 µM (inactive), the GI50 (T47D) was 22.2 µM (inactive) and the GI50 (ACHN) was 25.9 µM (inactive). The GI50 (SNB-75) was 27.4 µM (inactive), the GI50 (HCT-116) was 28.5 µM (inactive) and the GI50 (BT-549) was 20.5 µM (inactive). For the same compound, the GI50 (LOX IMVI) was 19.9 µM (inactive), the GI50 (SN12C) was 31.2 µM (inactive) and the GI50 (RPMI-8226) was 9.1 µM (inactive).

With `O=C1CCCc2c1c1c(n2Cc2ccccc2)-c2ccccc2C1=O` the GI50 (IGROV-1) was 18.9 µM (inactive), the GI50 (HT-29) was 31.1 µM (inactive) and the GI50 (Malme-3M) was 15.3 µM (inactive). For the same compound, the GI50 (SK-MEL-5) was 18.7 µM (inactive), the GI50 (NCI/ADR-RES) was 21.1 µM (inactive) and the GI50 (OVCAR-8) was 16.4 µM (inactive). The GI50 (DU-145) was 28.9 µM (inactive), the GI50 (MDA-MB-435) was 18.4 µM (inactive) and the GI50 (SF-295) was 15.7 µM (inactive). The GI50 (UACC-257) was 17.3 µM (inactive), the GI50 (T47D) was 5.93 µM (inactive) and the GI50 (ACHN) was 16 µM (inactive). The GI50 (SNB-75) was 62.5 µM (inactive), the GI50 (HCT-116) was 14.4 µM (inactive) and the GI50 (BT-549) was 22.8 µM (inactive). For the same compound, the GI50 (LOX IMVI) was 17.9 µM (inactive), the GI50 (SN12C) was 19.3 µM (inactive) and the GI50 (RPMI-8226) was 3.14 µM (inactive). For the same compound, the GI50 (NCI-H460) was 25.8 µM (inactive).

In the case of `CCOC(=O)c1c(NC(=O)c2ccccc2)sc2c1CCC2`, the GI50 (IGROV-1) is reported as > 100 µM (inactive), the GI50 (HT-29) is reported as > 100 µM (inactive) and the GI50 (SK-MEL-5) is reported as > 100 µM (inactive). For the same compound, the GI50 (NCI/ADR-RES) was > 100 µM (inactive), the GI50 (A498) was > 100 µM (inactive) and the GI50 (OVCAR-8) was > 100 µM (inactive). For the same compound, the GI50 (DU-145) was > 100 µM (inactive), the GI50 (SF-295) was > 100 µM (inactive) and the GI50 (UACC-257) was > 100 µM (inactive). The GI50 (T47D) was > 100 µM (inactive), the GI50 (ACHN) was > 100 µM (inactive) and the GI50 (SNB-75) was > 100 µM (inactive). For the same compound, the GI50 (HCT-116) was > 100 µM (inactive), the GI50 (BT-549) was > 100 µM (inactive) and the GI50 (SN12C) was > 100 µM (inactive). The GI50 (RPMI-8226) was > 100 µM (inactive) and the GI50 (NCI-H460) was > 100 µM (inactive).

For `OC(CC(O)(C(F)(F)F)C(F)(F)F)C(O)c1ccco1` (centres undefined), the GI50 (IGROV-1) was > 10 µM (inactive), the GI50 (HT-29) was > 10 µM (inactive) and the GI50 (Malme-3M) was > 10 µM (inactive). For the same compound, the GI50 (SK-MEL-5) was > 10 µM (inactive), the GI50 (NCI/ADR-RES) was > 10 µM (inactive) and the GI50 (A498) was 0.22 µM (active). For the same compound, the GI50 (OVCAR-8) was > 10 µM (inactive), the GI50 (DU-145) was > 10 µM (inactive) and the GI50 (MDA-MB-435) was > 10 µM (inactive). The GI50 (SF-295) was > 10 µM (inactive), the GI50 (UACC-257) was > 10 µM (inactive) and the GI50 (T47D) was > 10 µM (inactive). For the same compound, the GI50 (ACHN) was > 10 µM (inactive), the GI50 (SNB-75) was > 10 µM (inactive) and the GI50 (HCT-116) was > 10 µM (inactive). For the same compound, the GI50 (LOX IMVI) was > 10 µM (inactive), the GI50 (SN12C) was > 10 µM (inactive) and the GI50 (RPMI-8226) was > 10 µM (inactive). The GI50 (NCI-H460) was > 10 µM (inactive).

`C#C[C@]1(O)CC[C@H]2[C@@H]3CCC4=C/C(=N/CCOC(=O)c5cccc6cc7ccccc7nc56)CC[C@@H]4[C@H]3CC[C@@]21C` was tested, and the GI50 (IGROV-1) was 13.8 µM (inactive), the GI50 (HT-29) was 28.4 µM (inactive) and the GI50 (Malme-3M) was 27.7 µM (inactive). For the same compound, the GI50 (SK-MEL-5) was 23.7 µM (inactive), the GI50 (NCI/ADR-RES) was 26 µM (inactive) and the GI50 (A498) was 41 µM (inactive). The GI50 (OVCAR-8) was 10 µM (inactive), the GI50 (DU-145) was 21 µM (inactive) and the GI50 (MDA-MB-435) was 27.3 µM (inactive). The GI50 (SF-295) was 22.3 µM (inactive), the GI50 (UACC-257) was 27.8 µM (inactive) and the GI50 (T47D) was 16.8 µM (inactive). For the same compound, the GI50 (ACHN) was 29.2 µM (inactive), the GI50 (HCT-116) was 27.1 µM (inactive) and the GI50 (BT-549) was 24.2 µM (inactive). For the same compound, the GI50 (LOX IMVI) was 12.3 µM (inactive), the GI50 (SN12C) was 49.1 µM (inactive) and the GI50 (NCI-H460) was 14.9 µM (inactive).

With `Nc1nc(=O)c(/N=N/c2ccccc2)c(C(=O)O)[nH]1` the GI50 (IGROV-1) was 85.7 µM (inactive), the GI50 (HT-29) was 45.5 µM (inactive) and the GI50 (Malme-3M) was 85.3 µM (inactive). The GI50 (SK-MEL-5) was 93.8 µM (inactive), the GI50 (NCI/ADR-RES) was > 100 µM (inactive) and the GI50 (A498) was > 100 µM (inactive). The GI50 (OVCAR-8) was > 100 µM (inactive), the GI50 (DU-145) was 98.6 µM (inactive) and the GI50 (MDA-MB-435) was > 100 µM (inactive). The GI50 (SF-295) was 56.6 µM (inactive), the GI50 (UACC-257) was 62.8 µM (inactive) and the GI50 (ACHN) was > 100 µM (inactive). For the same compound, the GI50 (SNB-75) was > 100 µM (inactive), the GI50 (HCT-116) was 61.8 µM (inactive) and the GI50 (BT-549) was > 100 µM (inactive). The GI50 (LOX IMVI) was 74.6 µM (inactive), the GI50 (SN12C) was 96.6 µM (inactive) and the GI50 (RPMI-8226) was 63.8 µM (inactive). The GI50 (NCI-H460) was 45.7 µM (inactive).

For `Cc1cc(C)nc(NS(=O)(=O)c2ccc(NC(=O)c3ccc4nc5ccccc5c(Nc5ccc(S(N)(=O)=O)cc5)c4c3)cc2)n1`, the GI50 (IGROV-1) was > 100 µM (inactive), the GI50 (HT-29) was 75.3 µM (inactive) and the GI50 (Malme-3M) was 93.3 µM (inactive). The GI50 (SK-MEL-5) was > 100 µM (inactive), the GI50 (NCI/ADR-RES) was > 100 µM (inactive) and the GI50 (OVCAR-8) was > 100 µM (inactive). For the same compound, the GI50 (DU-145) was > 100 µM (inactive), the GI50 (MDA-MB-435) was > 100 µM (inactive) and the GI50 (SF-295) was > 100 µM (inactive). For the same compound, the GI50 (UACC-257) was > 100 µM (inactive), the GI50 (T47D) was > 100 µM (inactive) and the GI50 (ACHN) was > 100 µM (inactive). For the same compound, the GI50 (SNB-75) was > 100 µM (inactive), the GI50 (HCT-116) was > 100 µM (inactive) and the GI50 (BT-549) was 28.2 µM (inactive). For the same compound, the GI50 (LOX IMVI) was 45.6 µM (inactive), the GI50 (SN12C) was > 100 µM (inactive) and the GI50 (RPMI-8226) was 64.1 µM (inactive). The GI50 (NCI-H460) was > 100 µM (inactive).

With `CCOC(=O)c1cc2c(=Cc3ccc(N(C)C)cc3)c3ccccc3n2[n+]1C` the GI50 (HT-29) was < 0.01 µM (active), the GI50 (SK-MEL-5) was 1.32 µM (inactive) and the GI50 (NCI/ADR-RES) was > 100 µM (inactive). The GI50 (A498) was 10.4 µM (inactive), the GI50 (DU-145) was 1.38 µM (inactive) and the GI50 (SF-295) was 3.72 µM (inactive). The GI50 (UACC-257) was 1.57 µM (inactive), the GI50 (T47D) was 3.12 µM (inactive) and the GI50 (ACHN) was 5.87 µM (inactive). For the same compound, the GI50 (HCT-116) was 0.537 µM (active), the GI50 (BT-549) was 0.577 µM (active) and the GI50 (LOX IMVI) was 1.47 µM (inactive). The GI50 (SN12C) was < 0.01 µM (active), the GI50 (RPMI-8226) was 0.301 µM (active) and the GI50 (NCI-H460) was 2.44 µM (inactive).

Source: ChEMBL document CHEMBL1201862, “PubChem BioAssay data set” (2004)
